We go through one compound from patent US20060128716A1, “Use of 4-pyridylmethyl-phthalazine derivatives for the manufacture of a medicament for the treatment of myelodysplastic syndromes” (priority 2002, published 2006).

The structures appear in SMILES notation. A value given as a limit tells only on which side of the number the result lay.

The subject of one experiment is advanced MDS. Put plainly: Clinical example: oral PTK787 in patients with untreated advanced MDS. Format: in vivo, human.
In another experiment the target is Flt-1 (Homo sapiens, UniProt P17948). The note with it: statement in words, no test described; cited from earlier work.
The next experiment addresses Flt-4 (Homo sapiens, UniProt P35916). The following applies: statement in words, no test described; cited from earlier work.
Another experiment has as its target c-Kit (Homo sapiens, UniProt P10721). The following applies: statement in words, no test described; cited from earlier work.

Sequence of Flt-1 (P17948 27-1338, species assumed): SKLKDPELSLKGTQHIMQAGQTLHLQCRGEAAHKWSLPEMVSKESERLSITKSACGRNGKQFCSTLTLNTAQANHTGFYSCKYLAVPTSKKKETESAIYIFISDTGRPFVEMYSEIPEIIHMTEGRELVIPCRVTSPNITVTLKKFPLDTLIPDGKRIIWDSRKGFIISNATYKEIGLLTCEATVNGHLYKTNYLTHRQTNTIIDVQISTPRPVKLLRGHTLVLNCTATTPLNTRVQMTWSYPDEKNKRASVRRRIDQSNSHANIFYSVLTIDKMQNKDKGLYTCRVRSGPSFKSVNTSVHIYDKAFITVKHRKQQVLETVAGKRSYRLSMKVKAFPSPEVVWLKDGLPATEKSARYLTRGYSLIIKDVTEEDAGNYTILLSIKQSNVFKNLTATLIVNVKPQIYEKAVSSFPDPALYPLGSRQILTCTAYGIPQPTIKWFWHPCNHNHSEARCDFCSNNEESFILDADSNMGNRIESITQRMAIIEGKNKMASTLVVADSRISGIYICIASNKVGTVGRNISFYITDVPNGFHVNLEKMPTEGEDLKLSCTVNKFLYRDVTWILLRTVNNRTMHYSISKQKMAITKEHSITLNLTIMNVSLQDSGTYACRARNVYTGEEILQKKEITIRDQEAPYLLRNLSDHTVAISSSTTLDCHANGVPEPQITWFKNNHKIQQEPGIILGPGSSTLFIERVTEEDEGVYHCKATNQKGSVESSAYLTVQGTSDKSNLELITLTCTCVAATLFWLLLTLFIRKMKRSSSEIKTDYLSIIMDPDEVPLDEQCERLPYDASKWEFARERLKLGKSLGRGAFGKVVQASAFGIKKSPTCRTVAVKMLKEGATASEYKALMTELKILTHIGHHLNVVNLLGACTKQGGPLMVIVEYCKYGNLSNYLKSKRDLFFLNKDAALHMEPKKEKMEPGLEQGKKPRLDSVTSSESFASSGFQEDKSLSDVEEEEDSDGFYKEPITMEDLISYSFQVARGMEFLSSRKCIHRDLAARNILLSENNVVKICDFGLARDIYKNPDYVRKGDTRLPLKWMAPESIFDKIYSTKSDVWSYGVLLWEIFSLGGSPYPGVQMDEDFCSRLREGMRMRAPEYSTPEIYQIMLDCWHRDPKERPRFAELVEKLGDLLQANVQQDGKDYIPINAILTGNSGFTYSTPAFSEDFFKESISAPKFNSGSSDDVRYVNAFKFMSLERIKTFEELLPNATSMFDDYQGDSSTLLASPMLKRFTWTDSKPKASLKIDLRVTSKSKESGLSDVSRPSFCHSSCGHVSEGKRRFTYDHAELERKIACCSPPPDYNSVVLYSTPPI
Sequence of c-Kit (P10721 26-976): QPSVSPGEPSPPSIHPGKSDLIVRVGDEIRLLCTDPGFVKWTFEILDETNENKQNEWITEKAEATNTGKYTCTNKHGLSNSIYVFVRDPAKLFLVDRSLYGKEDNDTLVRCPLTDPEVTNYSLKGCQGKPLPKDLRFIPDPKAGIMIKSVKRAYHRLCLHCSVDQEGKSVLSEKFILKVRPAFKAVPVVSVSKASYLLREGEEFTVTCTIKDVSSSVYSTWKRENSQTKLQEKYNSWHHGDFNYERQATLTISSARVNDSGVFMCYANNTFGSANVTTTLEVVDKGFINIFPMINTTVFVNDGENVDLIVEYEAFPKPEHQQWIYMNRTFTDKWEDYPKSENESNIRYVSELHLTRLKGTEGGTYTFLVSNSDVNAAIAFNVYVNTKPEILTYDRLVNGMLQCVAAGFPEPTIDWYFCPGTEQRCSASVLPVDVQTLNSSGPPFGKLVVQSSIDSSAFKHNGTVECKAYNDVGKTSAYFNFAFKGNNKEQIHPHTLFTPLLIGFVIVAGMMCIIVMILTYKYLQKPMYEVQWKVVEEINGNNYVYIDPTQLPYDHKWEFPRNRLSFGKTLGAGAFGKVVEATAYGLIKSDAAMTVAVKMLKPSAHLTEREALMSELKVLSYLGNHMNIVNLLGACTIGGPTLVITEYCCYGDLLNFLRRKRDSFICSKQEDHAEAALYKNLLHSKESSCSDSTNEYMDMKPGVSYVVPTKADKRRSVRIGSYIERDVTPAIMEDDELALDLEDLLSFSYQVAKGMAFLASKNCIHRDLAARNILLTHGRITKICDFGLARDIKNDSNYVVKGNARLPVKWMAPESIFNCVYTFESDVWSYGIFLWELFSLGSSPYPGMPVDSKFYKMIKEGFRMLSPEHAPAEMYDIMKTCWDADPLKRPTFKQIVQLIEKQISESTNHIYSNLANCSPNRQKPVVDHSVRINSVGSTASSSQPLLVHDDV
Sequence of Flt-4 (P35916 25-1363, species assumed): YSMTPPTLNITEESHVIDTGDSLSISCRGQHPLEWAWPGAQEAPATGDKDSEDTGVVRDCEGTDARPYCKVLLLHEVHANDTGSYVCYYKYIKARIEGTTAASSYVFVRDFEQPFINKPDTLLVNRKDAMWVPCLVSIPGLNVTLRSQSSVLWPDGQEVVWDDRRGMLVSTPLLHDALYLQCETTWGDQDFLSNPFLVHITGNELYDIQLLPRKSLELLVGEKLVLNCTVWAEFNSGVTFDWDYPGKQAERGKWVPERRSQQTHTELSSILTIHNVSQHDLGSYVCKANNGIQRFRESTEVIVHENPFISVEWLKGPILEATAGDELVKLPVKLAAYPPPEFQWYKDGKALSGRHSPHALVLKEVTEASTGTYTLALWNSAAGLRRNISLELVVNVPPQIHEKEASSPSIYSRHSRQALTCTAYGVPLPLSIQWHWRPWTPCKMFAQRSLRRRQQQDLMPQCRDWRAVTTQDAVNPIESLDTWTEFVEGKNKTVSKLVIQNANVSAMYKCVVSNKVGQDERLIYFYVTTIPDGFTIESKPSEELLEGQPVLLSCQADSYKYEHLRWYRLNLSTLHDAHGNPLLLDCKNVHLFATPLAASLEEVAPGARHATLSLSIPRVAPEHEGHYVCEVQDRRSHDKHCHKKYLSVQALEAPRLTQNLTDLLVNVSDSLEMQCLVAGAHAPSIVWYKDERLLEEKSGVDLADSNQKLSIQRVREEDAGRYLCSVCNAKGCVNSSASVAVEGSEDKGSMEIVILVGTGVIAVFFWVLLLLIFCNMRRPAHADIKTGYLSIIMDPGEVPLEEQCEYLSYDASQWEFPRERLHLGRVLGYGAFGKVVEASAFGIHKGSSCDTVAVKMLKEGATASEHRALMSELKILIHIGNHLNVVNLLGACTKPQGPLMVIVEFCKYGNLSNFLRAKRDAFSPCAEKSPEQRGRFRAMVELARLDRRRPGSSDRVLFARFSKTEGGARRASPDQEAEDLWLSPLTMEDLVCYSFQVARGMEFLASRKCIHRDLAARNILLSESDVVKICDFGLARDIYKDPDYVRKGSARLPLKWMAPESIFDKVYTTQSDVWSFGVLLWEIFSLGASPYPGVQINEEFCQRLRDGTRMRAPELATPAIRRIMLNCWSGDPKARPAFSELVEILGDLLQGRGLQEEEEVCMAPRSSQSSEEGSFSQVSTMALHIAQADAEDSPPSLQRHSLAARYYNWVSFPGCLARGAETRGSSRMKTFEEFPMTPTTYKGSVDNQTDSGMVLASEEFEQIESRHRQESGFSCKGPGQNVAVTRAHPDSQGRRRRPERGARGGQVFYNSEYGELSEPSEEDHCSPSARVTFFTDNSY

`Clc1ccc(Nc2nnc(Cc3ccncc3)c3ccccc23)cc1` [PTK787]: in the experiment with advanced MDS (in at least some patients with MDS), the “disease progression in patients with MDS” value is “slows disease progression”. Further, the “patients with MDS showing stable disease with excellent performance status” value in the experiment with advanced MDS (of twelve patients, 500 or 750 mg orally twice daily) is listed as “Two”. Also, the bone marrow blasts result with advanced MDS (one patient with baseline 18% bone marrow blasts, remained for 8 months, 500 or 750 mg orally twice daily) is “under 30%”; with advanced MDS (second patient with baseline 11.5% blasts, remained for 4 months, 500 or 750 mg orally twice daily) it was at most 16%. Also, the “inhibition of Flt-1” value at Flt-1 is reported as “can also inhibit”. Besides, the “inhibition of Flt-4” value on Flt-4 was “can also inhibit”. On c-Kit, the “activity against c-Kit” value is given as “has activity against other tyrosine kinase receptors”.
